Experimental data reported in patent US8940516B2, “Method for the synthesis of chiral cyanohydrins via a hydroxynitrile lyase from brassicaceae” (Evocatal GmbH, priority 2006, dated 2015).
Residue numbers refer to the chain shown, from its start. In names and notes the source's numbering stands. Entries after “also recorded” stand apart in the source; their conditions may differ. Like-named read-outs stand apart in the source and are kept apart here.

T1: AtHNL (Arabidopsis thaliana, UniProt Q9LFT6)
T1 construct: made in house; host or cells: E. coli BL21(DE3), plasmid pAtHNL (pET28a, NcoI/XhoI)
T1 sequence (Q9LFT6 1-258): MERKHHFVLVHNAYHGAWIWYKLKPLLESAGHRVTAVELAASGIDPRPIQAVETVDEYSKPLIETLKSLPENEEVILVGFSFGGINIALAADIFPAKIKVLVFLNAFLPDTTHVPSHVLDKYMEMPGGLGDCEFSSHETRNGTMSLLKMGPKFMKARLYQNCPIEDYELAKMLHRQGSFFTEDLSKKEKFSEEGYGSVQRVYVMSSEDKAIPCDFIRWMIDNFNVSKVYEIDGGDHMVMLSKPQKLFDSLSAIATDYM

B1: AtHNL: hydroxynitrile lyase from Arabidopsis thaliana, polypeptide of the invention, SEQ ID NO: 1 (protein, listed as Arabidopsis thaliana)
chain: T1 sequence (Q9LFT6 1-258)
B2: N12T: AtHNL (SEQ ID NO: 1) with asparagine 12 exchanged for threonine, preferably as double mutation with Y14C (protein, listed as Arabidopsis thaliana)
chain: T1 sequence (Q9LFT6 1-258) with N12T
B3: D208N: AtHNL (SEQ ID NO: 1) with point mutation D208N, catalytic triad residue exchanged (protein, listed as Arabidopsis thaliana)
chain: T1 sequence (Q9LFT6 1-258) with D208N
B4: H236F: AtHNL (SEQ ID NO: 1) with point mutation H236F, catalytic triad residue exchanged (protein, listed as Arabidopsis thaliana)
chain: T1 sequence (Q9LFT6 1-258) with H236F
B5: Y14C: AtHNL (SEQ ID NO: 1) with tyrosine 14 exchanged for cysteine (protein, listed as Arabidopsis thaliana)
chain: T1 sequence (Q9LFT6 1-258) with Y14C
B6: L129W: AtHNL (SEQ ID NO: 1) with leucine 129 exchanged for tryptophan (protein, listed as Arabidopsis thaliana)
chain: T1 sequence (Q9LFT6 1-258) with L129W
B7: S81A: AtHNL (SEQ ID NO: 1) with point mutation S81A, catalytic triad residue exchanged (protein, listed as Arabidopsis thaliana)
chain: T1 sequence (Q9LFT6 1-258) with S81A

Experiments:
Format in all cases: biochemical
AtHNL [1] = biological target: T1, AtHNL
AtHNL [2] = biological target: T1, AtHNL; settings: pH 5
AtHNL [3] = biological target: T1, AtHNL; experiment: Cleavage of mandelonitrile, determination of liberated benzaldehyde (cell test); settings: cleavage reaction of cyanohydrin by AtHNL, citrate-phosphate buffer pH 5
Protocol: Ia) Cleavage of Mandelonitrile(=Benzaldehyde Cyanohydrin), Determination of Liberated Benzaldehyde (Cell Test):
The protocol employed was based on the test described by Bauer et al in 1999 and was only modified slightly. 700 μl of citrate-phosphate buffer, pH 5 (48.5 mL 0.1M citric acid, 51.5 mL 0.2 M dipotassium hydrogen phosphate, qsp 100 ml water) was mixed with 100 μl of enzyme sample in a quartz glass cell and the reaction was started with 200 μl of mandelonitrile solution (60 mM in citrate-phosphate buffer, pH 3.5 (1.82 mL 0.1 M citric acid, 1.06 mL 0.1 M disodium hydrogen phosphate, qsp 100 mL water). The increase in the extinction at 280 nm was monitored for 2 min. It was proportional to the benzaldehyde concentration in the sample. Self-degradation of the cyanohydrin was determined in a control sample without enzyme and subtracted from the values measured for the enzyme sample. In order to determine the remaining activity in the course of the stability tests described in Example 5d, a slightly altered procedure was used: 870 μl of citrate buffer (50 mM, pH 4) was supplemented with 30 μl of enzyme sample, the reaction was started by adding 100 μl of mandelonitrile (60 mM in 50 mM of citrate buffer, pH 2) and monitored for 2 minutes at 280 nm. […] The enzyme activity is, however, much lower with this procedure.

[4] = HNL activity test of cloned and expressed Arabidopsis proteins resembling MeHNL; settings: cloned, expressed heterologously in E. coli; listed as At5g10300
From the text: The Arabidopsis thaliana plant (mouse-ear cress) is a model organism (accessible genome, short generation period) and thus has been comprehensively investigated. The genome has been completely sequenced and recorded in sequence databases. Examples of such databases are, for example, the “Genbank” as a collection of all published sequences, or TAIR as a database restricted to a single organism (in this case Arabidopsis). Because of the great strides made in molecular biology, many new sequences are being input into the appropriate databases than can be individually assessed and described. Thus, until now genes which have been identified as true genes but which have not been further investigated have automatically been ascribed types by appropriate computer algorithms because of their similarities to known sequences. Whether the function stated in this description is true, however, must be individually ascertained for each protein. […] The increase in the extinction at 280 nm was monitored for 2 min. […] Self-degradation of the cyanohydrin was determined in a control sample without enzyme and subtracted from the values measured for the enzyme sample. […]

[5] = Demonstration of stereoselectivity (chiral gas chromatography and cleavage test with enantiomerically pure benzaldehyde cyanohydrin)
[6] = Activity of AtHNL preparations from fed batch fermentation
[7] = Point mutations in SEQ ID NO: 1 (AtHNL variants)
[8] = after Q-Sepharose, desalting and lyophilization

Molecule	ee (R) (%) (AtHNL [1])	Transformation (%) (AtHNL [1]; pH 4)	Transformation (%) (AtHNL [1])	further results
CCC(C)=O [2-butanone]	0	>95	–	–
CCCCCC(C)=O [2-heptanone]	9	9	–	–
CCCCC(C)=O [2-hexanone]	0	–	–	–
CCCCCCC(C)=O [2-octanone]	–	0	–	–
CCCC(C)=O [2-pentanone]	0	>95	–	–
O=Cc1cccc(Oc2ccccc2)c1 [3-phenoxybenzaldehyde]	78	73	–	–
O=Cc1ccc(Cl)cc1 [4-chlorobenzaldehyde]	95	98	–	–
COc1ccc(C=O)cc1 [4-methoxybenzaldehyde]	–	22.6	–	–
CC(O)C#N (centres unmarked) [Acetaldehyde cyanohydrin]	–	–	–	Specify activity (U/mg), HCN-Test (see Ib above) (AtHNL [2]): <0.05 U/mg
N#CC(O)c1ccccc1 (centres unmarked) [Benzaldehyde cyanohydrin]	–	–	–	Specify activity (U/mg), Benzaldehyde Test (see Ia above) (AtHNL [3]): 12.5 U/mg
O=Cc1ccccc1 [Benzaldehyde]	–	>99.9	–	–
CC(=O)CCc1ccccc1 [Benzyl acetone]	40	9	–	–
CCCCCCC=O [Heptanal]	>80	>99.9	–	–
CCCCCC=O [Hexanal]	–	98	–	–
CCCCCCCC=O [Octanal]	–	89	–	–
O=CCc1ccccc1 [Phenylacetaldehyde]	71	90	–	–
CCC(O)C#N (centres unmarked) [Propionaldehyde cyanohydrin]	–	–	–	Specify activity (U/mg), HCN-Test (see Ib above) (AtHNL [2]): <0.05 U/mg
C=CCc1ccccc1 [compound 17]	96	–	97	–
O=CCCc1ccccc1 [compound 18]	68	–	99	–

Molecule	ee (R) (%) (AtHNL [1])	Transformation (%) (AtHNL [1]; pH 4)	Transformation (%) (AtHNL [1])	further results
O=Cc1cccs1 [compound 19]	–	–	68	–
CCCCCC=O [compound 20]	98	–	99	–
CCCCCCCCCC=O [compound 21]	>95	–	56	–
CCC/C=C/C=O [compound 22]	–	–	53	–
CC(=O)CCC=C(C)C [compound 23]	–	–	0	–
CCCCC(C)=O [compound 24]	95	–	48	–
CCCCCCCCC(C)=O [compound 25]	–	–	2	–
O=C1CCCCC1 [compound 26]	–	–	94	–
CC(=O)c1ccccc1 [compound 27]	–	–	7	–
CC(=O)c1ccccc1F [compound 28]	95	–	8	–
CC(=O)CCc1ccccc1 [compound 29]	–	–	1	–
B1	–	–	–	HNL activity (Remarks/misc) [4]: high activity; also recorded: HNL activity (a poly-; stereoselectivity [5]: Only the (R) enantiomer formed or was transformed; activity per lyophilisate [6, 8]: 2.5 U/mg of lyophilisate; specific activity [6, 8]: approximately 40 U/mg protein; specific activity ([6]; unrefined extract): 13.3 U/mg; volumetric activity ([6]; unrefined extract): approx 800 U/ml
B2	–	–	–	effect of the point mutation on substrate spectrum / enantioselectivity [7]: broadening of substrate spectrum to ketones
B3	–	–	–	activity of the polypeptide after exchange of catalytic triad residues [7]: no longer exhibited any activity
B4	–	–	–	activity of the polypeptide after exchange of catalytic triad residues [7]: no longer exhibited any activity
B5	–	–	–	effect of the point mutation on substrate spectrum / enantioselectivity [7]: reversal of enantioselectivity
B6	–	–	–	effect of the point mutation on substrate spectrum / enantioselectivity [7]: reversal of enantioselectivity
B7	–	–	–	activity of the polypeptide after exchange of catalytic triad residues [7]: no longer exhibited any activity
